Results published in patent publication US6914045B2, “Glycopeptide antibiotics” (Wyeth Holdings Corporation, priority 2001, dated 2005).
In brackets after ≈: the same amount, converted by molar mass.

Legend:
Experiment in all cases: in vitro antibacterial evaluation, MIC by broth dilution
Type in all cases: cell-based
Enterococcus sp. = conditions: broth dilution, 18 hours at 35° C.
Outline: (§1)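 MIC = lowest antibiotic concentration preventing visible growth; inoculum 5×10^5 CFU/mL; drug range 64-0.06 μg/mL; Muller-Hinton II […]; NCCLS M7-A2 guidance.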

Staphylococcus sp. = conditions: broth dilution, 18 hours at 35° C.
Outline: as §1

Streptococcus sp. = conditions: broth dilution, 18 hours at 35° C.
Outline: as §1

Escherichia coli = conditions: 18 hours at 35° C.

MIC Enterococcus avium (GC 4558) (Enterococcus sp.): 4 µg/mL (≈ 2.69 µM)
MIC Enterococcus faecalis (ATCC 29212) (Enterococcus sp.): 4 µg/mL (≈ 2.69 µM)
MIC Enterococcus faecalis (GC 2242) (Enterococcus sp.): 4 µg/mL (≈ 2.69 µM)
MIC Enterococcus faecalis (GC 2691) (Enterococcus sp.): 4 µg/mL (≈ 2.69 µM)
MIC Enterococcus faecalis (GC 3059) (Enterococcus sp.): 2 µg/mL (≈ 1.34 µM)
MIC Enterococcus faecalis (GC 4552) (Enterococcus sp.): 4 µg/mL (≈ 2.69 µM)
MIC Enterococcus faecalis (GC 4553) (Enterococcus sp.): 4 µg/mL (≈ 2.69 µM)
MIC Enterococcus faecalis (GC 4554) (Enterococcus sp.): 4 µg/mL (≈ 2.69 µM)
MIC Enterococcus faecalis (GC 6189) (Enterococcus sp.): 2 µg/mL (≈ 1.34 µM)
MIC Enterococcus faecium (GC 2243) (Enterococcus sp.): 4 µg/mL (≈ 2.69 µM)
MIC Enterococcus faecium (GC 4556) (Enterococcus sp.): 4 µg/mL (≈ 2.69 µM)
MIC Enterococcus faecium (GC 4557) (Enterococcus sp.): 2 µg/mL (≈ 1.34 µM)
MIC Enterococcus faecalis (ATCC 29212) (Enterococcus sp.; strain ATCC 29212): 4 µg/mL (≈ 2.69 µM)
MIC Enterococcus faecium (GC 2243) (Enterococcus sp.; strain GC 2243): 4 µg/mL (≈ 2.69 µM)
MIC Enterococcus faecalis (GC 4552) (Enterococcus sp.; strain GC 4552): 4 µg/mL (≈ 2.69 µM)
MIC Enterococcus faecalis (GC 4553) (Enterococcus sp.; strain GC 4553): 4 µg/mL (≈ 2.69 µM)
MIC Enterococcus faecalis (GC 4554) (Enterococcus sp.; strain GC 4554): 4 µg/mL (≈ 2.69 µM)
MIC Enterococcus faecium (GC 4556) (Enterococcus sp.; strain GC 4556): 4 µg/mL (≈ 2.69 µM)
MIC Enterococcus faecium (GC 4557) (Enterococcus sp.; strain GC 4557): 2 µg/mL (≈ 1.34 µM)
MIC Enterococcus avium (GC 4558) (Enterococcus sp.; strain GC 4558): 4 µg/mL (≈ 2.69 µM)
MIC Enterococcus faecalis (GC 6189) (Enterococcus sp.; strain GC 6189): 2 µg/mL (≈ 1.34 µM)
MIC Enterococcus faecalis (GC 2242) (Enterococcus sp.; inoculum 5×10^5 CFU/mL, strain GC 2242): 4 µg/mL (≈ 2.69 µM)
MIC Enterococcus faecalis (GC 2691) (Enterococcus sp.; inoculum 5×10^5 CFU/mL, strain GC 2691): 4 µg/mL (≈ 2.69 µM)
MIC Enterococcus faecalis (GC 3059) (Enterococcus sp.; inoculum 5×10^5 CFU/mL, strain GC 3059): 2 µg/mL (≈ 1.34 µM)
MIC Coagulase Negative Staphylococcus (GC 4547) (Staphylococcus sp.): 2 µg/mL (≈ 1.34 µM)
MIC Coagulase Negative Staphylococcus (GC 4548) (Staphylococcus sp.): 1 µg/mL (≈ 0.672 µM)
MIC Coagulase Negative Staphylococcus (GC 4549) (Staphylococcus sp.): 2 µg/mL (≈ 1.34 µM)
MIC Coagulase Negative Staphylococcus (GC 4551) (Staphylococcus sp.): 4 µg/mL (≈ 2.69 µM)
MIC Coagulase Negative Staphylococcus (GC 6257) (Staphylococcus sp.): 2 µg/mL (≈ 1.34 µM)
MIC Staphylococcus aureus (ATCC 29213) (Staphylococcus sp.): 2 µg/mL (≈ 1.34 µM)
MIC Staphylococcus aureus (GC 1131) (Staphylococcus sp.): 2 µg/mL (≈ 1.34 µM)
MIC Staphylococcus aureus (GC 3051) (Staphylococcus sp.): 2 µg/mL (≈ 1.34 µM)
MIC Staphylococcus aureus (GC 3053) (Staphylococcus sp.): 2 µg/mL (≈ 1.34 µM)
MIC Staphylococcus aureus (GC 4541) (Staphylococcus sp.): 2 µg/mL (≈ 1.34 µM)
MIC Staphylococcus aureus (GC 4542) (Staphylococcus sp.): 2 µg/mL (≈ 1.34 µM)
MIC Staphylococcus aureus (GC 4544) (Staphylococcus sp.): 2 µg/mL (≈ 1.34 µM)
MIC Staphylococcus aureus (GC 4545) (Staphylococcus sp.): 2 µg/mL (≈ 1.34 µM)
MIC Staphylococcus aureus-SMITH (GC 4543) (Staphylococcus sp.): 2 µg/mL (≈ 1.34 µM)
MIC Staphylococcus aureus (ATCC 29213) (Staphylococcus sp.; strain ATCC 29213): 2 µg/mL (≈ 1.34 µM)
MIC Staphylococcus aureus (GC 1131) (Staphylococcus sp.; strain GC 1131): 2 µg/mL (≈ 1.34 µM)
MIC Staphylococcus aureus (GC 3051) (Staphylococcus sp.; strain GC 3051): 2 µg/mL (≈ 1.34 µM)
MIC Staphylococcus aureus (GC 3053) (Staphylococcus sp.; strain GC 3053): 2 µg/mL (≈ 1.34 µM)
MIC Staphylococcus aureus (GC 4541) (Staphylococcus sp.; strain GC 4541): 2 µg/mL (≈ 1.34 µM)
MIC Staphylococcus aureus (GC 4542) (Staphylococcus sp.; strain GC 4542): 2 µg/mL (≈ 1.34 µM)
MIC Staphylococcus aureus-SMITH (GC 4543) (Staphylococcus sp.; strain GC 4543): 2 µg/mL (≈ 1.34 µM)
MIC Staphylococcus aureus (GC 4544) (Staphylococcus sp.; strain GC 4544): 2 µg/mL (≈ 1.34 µM)
MIC Staphylococcus aureus (GC 4545) (Staphylococcus sp.; strain GC 4545): 2 µg/mL (≈ 1.34 µM)
MIC Coagulase Negative Staphylococcus (GC 4547) (Staphylococcus sp.; strain GC 4547): 2 µg/mL (≈ 1.34 µM)
MIC Coagulase Negative Staphylococcus (GC 4548) (Staphylococcus sp.; strain GC 4548): 1 µg/mL (≈ 0.672 µM)
MIC Coagulase Negative Staphylococcus (GC 4549) (Staphylococcus sp.; strain GC 4549): 2 µg/mL (≈ 1.34 µM)
MIC Coagulase Negative Staphylococcus (GC 4551) (Staphylococcus sp.; strain GC 4551): 4 µg/mL (≈ 2.69 µM)
MIC Coagulase Negative Staphylococcus (GC 6257) (Staphylococcus sp.; strain GC 6257): 2 µg/mL (≈ 1.34 µM)
MIC Streptococcus agalactiae (GC 4564) (Streptococcus sp.): <0.06 µg/mL
MIC Streptococcus pneumoniae (ATCC 6301) (Streptococcus sp.): <0.06 µg/mL
MIC Streptococcus pneumoniae (GC 1894) (Streptococcus sp.): <0.06 µg/mL
MIC Streptococcus pneumoniae (GC 4565) (Streptococcus sp.): <0.06 µg/mL
MIC Streptococcus pyogenes (GC 4563) (Streptococcus sp.): <0.06 µg/mL
MIC Streptococcus pneumoniae (ATCC 6301) (Streptococcus sp.; inoculum 5×10^5 CFU/mL, strain ATCC 6301): <0.06 µg/mL
MIC Streptococcus pneumoniae (GC 1894) (Streptococcus sp.; inoculum 5×10^5 CFU/mL, strain GC 1894): <0.06 µg/mL
MIC Streptococcus pyogenes (GC 4563) (Streptococcus sp.; inoculum 5×10^5 CFU/mL, strain GC 4563): <0.06 µg/mL
MIC Streptococcus agalactiae (GC 4564) (Streptococcus sp.; inoculum 5×10^5 CFU/mL, strain GC 4564): <0.06 µg/mL
MIC Streptococcus pneumoniae (GC 4565) (Streptococcus sp.; inoculum 5×10^5 CFU/mL, strain GC 4565): <0.06 µg/mL
MIC Escherichia coli (ATCC 25922) (Escherichia coli): >64 µg/mL
MIC Escherichia coli (GC 4559) (Escherichia coli): >64 µg/mL
MIC Escherichia coli (GC 4560) (Escherichia coli): 2 µg/mL (≈ 1.34 µM)
SMILES: CC(c1ccccc1)C1NC(=O)CNC(=O)C(CO)NC(=O)C(C(O)C2CNC(=N)N2C2OC(CO)C(O)C(O)C2O)NC(=O)C(C(O)C2CNC(=N)N2)NC(=O)C(Cc2ccc(OC3OC(CO)C(OC4OC(COCC=C(c5ccccc5)c5ccccc5)C(O)C(O)C4O)C(O)C3O)cc2)NC1=O (stereo not shown) [Example 241]
MIC Staphylococcus haemolyticus (GC 4546) (Staphylococcus sp.): 2 µg/mL (≈ 1.34 µM)
MIC Staphylococcus haemolyticus (GC 4546) (Staphylococcus sp.; strain GC 4546): 2 µg/mL (≈ 1.34 µM)
